How the values were obtained:
[1] = Dielectric constant (Agilent 85070 Dielectric Probe; ASTM D150-11); format: physicochemical; settings: for Dielectric Constant (20 GHz): Table 3, values understood as 'about'; for Calculated Dk at 20 GHz: Table E1, ambient pressure, room temperature (approximately 23° C.)
Description: “Dielectric Constant” means the dielectric constant as measured in accordance with ASTM D150-11 at room temperature at 20 giga hertz (GHz).
(§1) The boiling point (“BP”) and dielectric constant (“Dk”) of trans- and cis-secBuFO and trans- and cis-tBuFO were determined and the results are reported below in Table E1. The dielectric property of each of trans- and cis-secBuFO and trans- and cis-tBuFO was determined using the Agilent 85070 Dielectric Probe. All measurements were made at ambient pressure and room temperature (approximately 23° C.). Prior to making measurements, the system was calibrated from 1 GHz to 20 GHz with an open circuit, a short circuit, and DI water (@22.4° C.) standard. The result of the calibration is shown in the Table E1 below for DI H2O, and is consistent with DI water at 22.4° C. The accuracy of the probe is given as: Dielectric constant, er′=er′+/−0.05|er*| with er″=er″+/−0.05|er*| and (loss=er″/er′).

[2] = format: physicochemical; settings: for BP: Table E1
Description: as §1

[3] = Toxicological screening study: in vivo acute oral toxicity and 4-hour acute inhalation toxicity; settings: acute oral 2,000 mg/kg/day; 4-hour acute inhalation at 18,375 ppm
Description: “Acceptable toxicity” means a fluid that has toxicity within acceptable limits. This is experimentally determined by a toxicological screening study to assess in vivo acute oral toxicity at a dosage of 2,000 mg/kg/day and 4-hour acute inhalation toxicity at a concentration of about 20,000 ppm.
A fluid including the trans isomer of the SecBuFO refrigerant was subjected experimentally a toxicological screening study to assess in vivo acute oral toxicity at a dosage of 2,000 mg/kg/day and 4-hour acute inhalation toxicity at a concentration of 18,375 ppm.

SMILES | Dielectric Constant (20 GHz) [1] | Calculated Dk at 20 GHz [1] | Boiling point [2] | BP [2] | toxicology screening study outcome [3]
F/C=C\C(F)(C(F)(F)F)C(F)(F)C(F)(F)F (stereo not drawn) [cis-secBuFO, cis-1,3,4,4,5,5,5-heptafluoro-3-(trifluoromethyl)pent-1-ene] | 6.48 | 6.48 | 79.27 °C | 79.27 °C | –
F/C=C\C(C(F)(F)F)(C(F)(F)F)C(F)(F)F [cis-tBuFO, cis-1,4,4,4-tetrafluoro-3,3-bis(trifluoromethyl)but-1-ene] | 6.51 | 6.51 | 76.19 °C | 76.19 °C | –
F/C=C/C(F)(C(F)(F)F)C(F)(F)C(F)(F)F (stereo not drawn) [trans-secBuFO, trans-1,3,4,4,5,5,5-heptafluoro-3-(trifluoromethyl)pent-1-ene] | 2.11 | 2.11 | 55.5-55.9 °C | 55.5-55.9 °C | passed
F/C=C/C(C(F)(F)F)(C(F)(F)F)C(F)(F)F [trans-tBuFO, trans-1,4,4,4-tetrafluoro-3,3-bis(trifluoromethyl)but-1-ene] | 2.15 | 2.15 | 57.9 °C | 57.9 °C | –

From patent US20250297152A1, “FLUORINATED SUBSTITUTED OLEFIN REFRIGERANTS AND METHODS OF COOLING ELECTRONICS” (Honeywell International Inc., priority 2024, published 2025)
